Test results reported in patent publication US7074789B2, “Kinase inhibitors” (Amgen Inc., priority 1999, dated 2006).

How the values were obtained:
Assay type in all cases: biochemical
[1] = target: T1, Lck (Homo sapiens, UniProt P06239); assay: Kinase inhibition assay (33P transfer), Lck; settings: Table 3, class symbols; read-out: Lck-1
T1 construct: Kinases are expressed as either kinase domains or full length constructs; made in house
Procedure, shortened: (§1)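 Kinase domains or full-length kinases, GST- or His-tagged and expressed in E. coli or baculovirus/High Five cells, transferred 33PO4 from ATP onto plate-bound poly(Glu,Tyr) 4:1 or poly(Arg,Ser) 3:1. After incubation, plates were washed with 0.5% phosphoric acid and counted by liquid scintillation.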

[2] = target: T2, Zap-70 (Homo sapiens, UniProt P43403); assay: Kinase inhibition assay (33P transfer), Zap-70; settings: Table 3, class symbols; read-out: Zap-1
T2 construct: Kinases are expressed as either kinase domains or full length constructs; made in house
T2 sequence (P43403 1-619): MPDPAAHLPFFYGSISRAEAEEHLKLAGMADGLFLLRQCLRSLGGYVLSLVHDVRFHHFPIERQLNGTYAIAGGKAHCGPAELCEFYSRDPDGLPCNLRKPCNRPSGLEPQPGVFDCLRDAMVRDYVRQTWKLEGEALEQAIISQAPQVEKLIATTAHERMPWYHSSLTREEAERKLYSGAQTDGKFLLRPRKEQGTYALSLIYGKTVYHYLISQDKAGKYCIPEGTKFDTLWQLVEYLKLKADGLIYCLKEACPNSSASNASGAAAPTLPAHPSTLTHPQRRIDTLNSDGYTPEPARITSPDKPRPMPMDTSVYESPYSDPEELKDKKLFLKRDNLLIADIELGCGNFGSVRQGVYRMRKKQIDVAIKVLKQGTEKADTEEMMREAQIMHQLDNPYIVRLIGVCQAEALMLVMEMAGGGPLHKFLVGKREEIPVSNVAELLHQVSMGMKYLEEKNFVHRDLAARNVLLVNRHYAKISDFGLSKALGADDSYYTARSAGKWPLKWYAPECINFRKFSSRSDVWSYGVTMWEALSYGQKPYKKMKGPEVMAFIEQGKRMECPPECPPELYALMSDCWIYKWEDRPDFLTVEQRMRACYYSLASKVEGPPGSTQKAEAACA
Procedure, shortened: as §1

[3] = target: T3, Itk (Homo sapiens, UniProt Q08881); assay: Kinase inhibition assay (33P transfer), Itk; settings: Table 3, class symbols; read-out: Itk-1
T3 construct: Kinases are expressed as either kinase domains or full length constructs; made in house
T3 sequence (Q08881 1-620): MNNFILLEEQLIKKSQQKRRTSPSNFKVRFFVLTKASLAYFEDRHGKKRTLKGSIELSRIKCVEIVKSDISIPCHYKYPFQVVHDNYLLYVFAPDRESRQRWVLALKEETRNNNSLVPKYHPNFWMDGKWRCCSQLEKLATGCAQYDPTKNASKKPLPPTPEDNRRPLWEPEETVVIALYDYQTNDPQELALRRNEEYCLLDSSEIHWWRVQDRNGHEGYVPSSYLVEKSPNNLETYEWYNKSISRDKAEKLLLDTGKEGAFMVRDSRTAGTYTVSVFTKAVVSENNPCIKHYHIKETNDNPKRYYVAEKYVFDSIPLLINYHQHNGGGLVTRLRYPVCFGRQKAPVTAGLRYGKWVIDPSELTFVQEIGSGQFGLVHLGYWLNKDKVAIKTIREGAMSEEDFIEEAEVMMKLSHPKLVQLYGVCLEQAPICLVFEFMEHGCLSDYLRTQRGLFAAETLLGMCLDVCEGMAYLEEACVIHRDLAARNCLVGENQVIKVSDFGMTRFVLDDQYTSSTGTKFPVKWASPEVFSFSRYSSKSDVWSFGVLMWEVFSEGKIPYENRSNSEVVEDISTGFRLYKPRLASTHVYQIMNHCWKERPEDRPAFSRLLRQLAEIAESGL
Procedure, shortened: (§2)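 Using immobilised substrate copolymers (poly(Glu,Tyr) 4:1; poly(Arg,Ser) 3:1) and [33P]ATP, purified fusion kinases were allowed to react; plates were then rinsed in 0.5% phosphoric acid and counted in a scintillation detector. Half-maximal inhibition of label transfer defines IC50.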

[4] = target: T4, EGFR (Homo sapiens, UniProt P00533); assay: Kinase inhibition assay (33P transfer), EGFR; settings: Table 2, class symbols A-E; read-out: EGFR-1
T4 construct: Kinases are expressed as either kinase domains or full length constructs; made in house
Procedure, shortened: as §2

[5] = target: T5, ErbB2 (Homo sapiens, UniProt P04626); assay: Kinase inhibition assay (33P transfer), ErbB2; settings: read-out: ErbB2-2
T5 construct: Kinases are expressed as either kinase domains or full length constructs; made in house
Procedure, shortened: as §2

[6] = target: T6, Kdr (Homo sapiens, UniProt P35968); assay: Kinase inhibition assay (33P transfer), Kdr; settings: Table 3, class symbols; read-out: KDR-1
T6 construct: Kinases are expressed as either kinase domains or full length constructs; made in house
T6 sequence (P35968 20-1356, species assumed): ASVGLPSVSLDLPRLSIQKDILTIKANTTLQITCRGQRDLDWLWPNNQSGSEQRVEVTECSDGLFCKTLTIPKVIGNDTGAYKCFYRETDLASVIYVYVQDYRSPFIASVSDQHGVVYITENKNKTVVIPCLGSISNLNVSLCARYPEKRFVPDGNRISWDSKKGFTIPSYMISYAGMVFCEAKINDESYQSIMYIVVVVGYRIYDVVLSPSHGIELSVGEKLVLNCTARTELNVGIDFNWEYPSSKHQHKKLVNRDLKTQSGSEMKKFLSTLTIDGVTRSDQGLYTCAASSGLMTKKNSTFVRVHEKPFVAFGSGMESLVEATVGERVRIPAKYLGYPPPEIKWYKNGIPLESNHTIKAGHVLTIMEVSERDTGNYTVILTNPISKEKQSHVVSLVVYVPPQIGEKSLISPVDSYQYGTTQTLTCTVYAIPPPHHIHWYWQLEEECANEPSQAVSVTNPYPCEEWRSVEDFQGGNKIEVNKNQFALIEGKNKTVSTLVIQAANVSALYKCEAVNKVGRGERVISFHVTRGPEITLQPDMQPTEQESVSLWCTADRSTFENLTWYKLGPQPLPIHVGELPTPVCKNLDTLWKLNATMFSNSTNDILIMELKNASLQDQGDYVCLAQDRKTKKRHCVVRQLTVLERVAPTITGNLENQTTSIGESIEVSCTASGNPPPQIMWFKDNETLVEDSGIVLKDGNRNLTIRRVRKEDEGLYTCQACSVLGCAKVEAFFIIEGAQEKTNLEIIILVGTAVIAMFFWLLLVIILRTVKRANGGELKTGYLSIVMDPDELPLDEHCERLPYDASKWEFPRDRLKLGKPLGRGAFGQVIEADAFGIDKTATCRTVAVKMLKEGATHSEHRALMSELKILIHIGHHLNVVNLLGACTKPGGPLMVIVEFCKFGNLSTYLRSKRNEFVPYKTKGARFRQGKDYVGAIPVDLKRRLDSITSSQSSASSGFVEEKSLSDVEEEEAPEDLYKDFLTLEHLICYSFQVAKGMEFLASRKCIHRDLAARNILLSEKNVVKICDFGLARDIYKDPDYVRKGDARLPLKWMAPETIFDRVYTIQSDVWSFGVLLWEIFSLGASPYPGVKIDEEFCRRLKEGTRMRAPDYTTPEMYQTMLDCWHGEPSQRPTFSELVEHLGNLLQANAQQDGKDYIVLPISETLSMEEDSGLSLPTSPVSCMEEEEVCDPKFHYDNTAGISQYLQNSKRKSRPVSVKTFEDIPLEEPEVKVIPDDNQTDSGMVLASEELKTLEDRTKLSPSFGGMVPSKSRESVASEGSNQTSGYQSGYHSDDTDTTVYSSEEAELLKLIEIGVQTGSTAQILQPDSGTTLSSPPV
Procedure, shortened: as §1

[7] = target: T7, c-Met (Homo sapiens, UniProt P08581); assay: Kinase inhibition assay (33P transfer), c-Met; settings: Table 2, class symbols A-E; read-out: Met-1
T7 construct: Kinases are expressed as either kinase domains or full length constructs; made in house
T7 sequence (P08581 25-1390): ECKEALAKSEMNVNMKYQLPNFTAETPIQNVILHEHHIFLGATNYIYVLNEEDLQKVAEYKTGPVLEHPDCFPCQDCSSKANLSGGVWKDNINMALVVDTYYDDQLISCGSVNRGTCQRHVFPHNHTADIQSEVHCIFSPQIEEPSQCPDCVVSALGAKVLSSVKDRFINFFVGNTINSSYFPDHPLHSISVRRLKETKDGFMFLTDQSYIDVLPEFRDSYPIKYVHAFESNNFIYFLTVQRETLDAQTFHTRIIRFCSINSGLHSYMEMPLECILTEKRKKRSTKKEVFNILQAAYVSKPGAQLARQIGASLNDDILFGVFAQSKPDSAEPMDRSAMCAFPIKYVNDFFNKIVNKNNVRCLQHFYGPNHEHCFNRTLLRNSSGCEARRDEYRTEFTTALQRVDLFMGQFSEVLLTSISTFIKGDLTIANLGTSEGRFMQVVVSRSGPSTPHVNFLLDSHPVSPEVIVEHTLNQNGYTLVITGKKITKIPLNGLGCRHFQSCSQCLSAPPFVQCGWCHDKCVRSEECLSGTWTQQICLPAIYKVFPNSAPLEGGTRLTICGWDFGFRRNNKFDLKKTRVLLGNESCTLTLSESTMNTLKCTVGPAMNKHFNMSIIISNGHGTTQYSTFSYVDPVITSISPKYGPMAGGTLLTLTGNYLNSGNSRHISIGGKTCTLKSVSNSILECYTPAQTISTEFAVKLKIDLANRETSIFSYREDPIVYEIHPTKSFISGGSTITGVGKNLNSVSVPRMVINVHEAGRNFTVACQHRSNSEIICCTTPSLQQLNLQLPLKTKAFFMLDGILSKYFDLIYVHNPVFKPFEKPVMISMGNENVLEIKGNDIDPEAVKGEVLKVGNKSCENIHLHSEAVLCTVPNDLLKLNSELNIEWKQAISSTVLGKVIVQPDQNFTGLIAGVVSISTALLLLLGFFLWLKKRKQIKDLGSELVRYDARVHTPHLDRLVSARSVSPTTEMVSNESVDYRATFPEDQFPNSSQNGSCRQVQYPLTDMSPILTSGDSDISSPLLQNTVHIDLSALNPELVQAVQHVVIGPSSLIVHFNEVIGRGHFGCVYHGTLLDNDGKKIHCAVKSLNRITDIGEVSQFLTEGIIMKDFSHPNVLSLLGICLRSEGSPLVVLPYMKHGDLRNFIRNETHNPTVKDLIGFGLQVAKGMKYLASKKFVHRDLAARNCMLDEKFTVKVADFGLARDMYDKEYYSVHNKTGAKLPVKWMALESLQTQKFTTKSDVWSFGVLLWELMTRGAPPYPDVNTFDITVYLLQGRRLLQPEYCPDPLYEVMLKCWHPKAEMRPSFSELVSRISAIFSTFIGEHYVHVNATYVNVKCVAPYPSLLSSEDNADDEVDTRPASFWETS
Procedure, shortened: as §2

[8] = target: T8, AKT (Homo sapiens, UniProt Q9Y243); assay: Kinase inhibition assay (33P transfer), AKT; settings: Table 2, class symbols A-E; read-out: AKT3-1
T8 construct: Kinases are expressed as either kinase domains or full length constructs; made in house
T8 sequence (Q9Y243 whole entry, the tested form may be a part): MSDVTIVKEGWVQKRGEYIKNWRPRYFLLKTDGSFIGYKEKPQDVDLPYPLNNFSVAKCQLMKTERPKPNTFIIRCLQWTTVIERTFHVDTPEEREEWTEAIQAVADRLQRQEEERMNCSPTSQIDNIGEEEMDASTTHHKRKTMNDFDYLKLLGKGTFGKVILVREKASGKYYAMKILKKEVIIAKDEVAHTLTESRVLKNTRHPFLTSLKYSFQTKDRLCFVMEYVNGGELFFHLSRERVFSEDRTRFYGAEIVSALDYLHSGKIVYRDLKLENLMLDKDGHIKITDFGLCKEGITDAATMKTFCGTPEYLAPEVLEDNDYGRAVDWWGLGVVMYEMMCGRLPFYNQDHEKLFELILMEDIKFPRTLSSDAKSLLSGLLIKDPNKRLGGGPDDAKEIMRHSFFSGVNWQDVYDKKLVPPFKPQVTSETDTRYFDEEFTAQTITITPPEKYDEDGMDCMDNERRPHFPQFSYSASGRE
Procedure, shortened: as §1

[9] = target: T9, IGFR-1 (Homo sapiens, UniProt P08069); assay: Kinase inhibition assay (33P transfer), IGFR-1; settings: Table 2, class symbols A-E
T9 construct: Kinases are expressed as either kinase domains or full length constructs; made in house

[10] = target: T10, PDGFRB (Homo sapiens, UniProt P09619); assay: Kinase inhibition assay (33P transfer), PDGFRB; settings: read-out: PDGFRB-1
T10 construct: Kinases are expressed as either kinase domains or full length constructs; made in house
T10 sequence (P09619 33-1106, species assumed): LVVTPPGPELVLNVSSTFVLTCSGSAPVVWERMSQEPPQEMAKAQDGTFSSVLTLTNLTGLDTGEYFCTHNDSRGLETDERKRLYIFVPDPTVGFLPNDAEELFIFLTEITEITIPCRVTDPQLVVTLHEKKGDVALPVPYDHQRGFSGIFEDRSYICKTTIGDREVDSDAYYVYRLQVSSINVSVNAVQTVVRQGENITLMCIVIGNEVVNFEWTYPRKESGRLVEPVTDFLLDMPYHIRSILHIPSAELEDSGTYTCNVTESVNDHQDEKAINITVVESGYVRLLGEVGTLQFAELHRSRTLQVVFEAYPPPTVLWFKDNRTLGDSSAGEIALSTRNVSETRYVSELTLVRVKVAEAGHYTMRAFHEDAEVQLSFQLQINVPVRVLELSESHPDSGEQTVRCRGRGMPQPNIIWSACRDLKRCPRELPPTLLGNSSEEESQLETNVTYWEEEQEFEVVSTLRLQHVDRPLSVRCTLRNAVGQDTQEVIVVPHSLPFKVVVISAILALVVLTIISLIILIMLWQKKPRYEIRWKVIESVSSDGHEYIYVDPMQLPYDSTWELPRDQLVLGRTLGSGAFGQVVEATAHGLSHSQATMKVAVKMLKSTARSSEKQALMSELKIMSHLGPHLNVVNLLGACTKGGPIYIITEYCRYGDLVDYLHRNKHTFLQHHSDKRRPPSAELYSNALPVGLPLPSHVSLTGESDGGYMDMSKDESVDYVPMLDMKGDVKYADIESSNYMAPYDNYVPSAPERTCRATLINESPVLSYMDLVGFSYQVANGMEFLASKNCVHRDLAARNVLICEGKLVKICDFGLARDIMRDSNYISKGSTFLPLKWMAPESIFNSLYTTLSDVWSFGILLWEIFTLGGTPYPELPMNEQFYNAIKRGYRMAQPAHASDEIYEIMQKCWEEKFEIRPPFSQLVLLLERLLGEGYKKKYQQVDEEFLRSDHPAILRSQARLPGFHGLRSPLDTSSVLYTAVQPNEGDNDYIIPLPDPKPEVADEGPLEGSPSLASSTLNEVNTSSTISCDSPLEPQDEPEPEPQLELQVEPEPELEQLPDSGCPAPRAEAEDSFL

T1 sequence (P06239 whole entry, species assumed, the tested form may be a part): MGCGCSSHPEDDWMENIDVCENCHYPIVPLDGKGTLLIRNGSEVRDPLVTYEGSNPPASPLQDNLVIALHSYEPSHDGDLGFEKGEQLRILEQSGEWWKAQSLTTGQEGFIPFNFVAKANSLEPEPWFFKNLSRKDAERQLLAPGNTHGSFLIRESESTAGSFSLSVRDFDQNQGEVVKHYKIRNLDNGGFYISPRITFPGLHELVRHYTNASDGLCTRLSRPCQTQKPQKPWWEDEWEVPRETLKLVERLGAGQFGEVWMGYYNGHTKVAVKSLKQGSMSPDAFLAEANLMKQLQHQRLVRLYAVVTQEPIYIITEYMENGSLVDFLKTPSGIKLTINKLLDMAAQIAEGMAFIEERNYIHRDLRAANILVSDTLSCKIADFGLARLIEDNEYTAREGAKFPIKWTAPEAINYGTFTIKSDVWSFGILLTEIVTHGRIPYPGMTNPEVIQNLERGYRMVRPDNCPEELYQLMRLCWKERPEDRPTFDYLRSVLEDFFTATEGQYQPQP

COC(=O)c1ccc(-c2cc(Nc3ncnc(Nc4cccc(S(=O)(=O)O)c4)n3)[nH]n2)cc1 [Compound 882]
IC50 [1]: 5.13 to 7.49 µM
IC50 [2]: > 9.63 µM
IC50 [3]: 0.856 to 5.13 µM
IC50 [4]: 0.856 to 5.13 µM
IC50 [5]: 0.856 to 5.13 µM
IC50 [6]: 0.856 to 5.13 µM
IC50 [7]: 0.856 to 5.13 µM
IC50 [8]: 5.13 to 7.49 µM
IC50 [9]: 0.856 to 5.13 µM
IC50 [10]: 0.856 to 5.13 µM

CNS(=O)(=O)Cc1ccc(Nc2ncnc(Nc3cc(-c4ccc(C(=O)OC)cc4)n[nH]3)n2)cc1 [Compound 883]
IC50 [1]: > 9.1 µM
IC50 [2]: > 9.1 µM
IC50 [3]: > 9.1 µM
IC50 [4]: 4.85 to 7.08 µM
IC50 [5]: > 9.1 µM
IC50 [6]: > 9.1 µM
IC50 [7]: < 0.809 µM
IC50 [8]: > 9.1 µM
IC50 [9]: 4.85 to 7.08 µM
IC50 [10]: 4.85 to 7.08 µM

O=C(O)CNC(=O)c1ccc(Nc2ncnc(Nc3cc(-c4ccco4)[nH]n3)n2)cc1 [Compound 884]
IC50 [1]: > 10.7 µM
IC50 [2]: 5.71 to 8.33 µM
IC50 [3]: 0.951 to 5.71 µM
IC50 [4]: 0.951 to 5.71 µM
IC50 [5]: 0.951 to 5.71 µM
IC50 [6]: < 0.951 µM
IC50 [7]: 0.951 to 5.71 µM
IC50 [8]: 0.951 to 5.71 µM
IC50 [9]: 0.951 to 5.71 µM
IC50 [10]: < 0.951 µM

O=C(O)CCNC(=O)c1ccc(Nc2ncnc(Nc3cc(-c4ccco4)[nH]n3)n2)cc1 [Compound 885]
IC50 [1]: > 10.4 µM
IC50 [2]: 5.52 to 8.06 µM
IC50 [3]: 0.921 to 5.52 µM
IC50 [4]: 0.921 to 5.52 µM
IC50 [5]: 0.921 to 5.52 µM
IC50 [6]: < 0.921 µM
IC50 [7]: 0.921 to 5.52 µM
IC50 [8]: 8.06 to 10.4 µM
IC50 [9]: 0.921 to 5.52 µM
IC50 [10]: 0.921 to 5.52 µM

O=C(O)/C=C/c1ccc(Nc2ncnc(Nc3cc(-c4ccco4)[nH]n3)n2)cc1 [Compound 886]
IC50 [1]: 1.03 to 6.16 µM
IC50 [2]: 1.03 to 6.16 µM
IC50 [3]: < 1.03 µM
IC50 [4]: < 1.03 µM
IC50 [5]: 1.03 to 6.16 µM
IC50 [6]: < 1.03 µM
IC50 [7]: < 1.03 µM
IC50 [8]: 1.03 to 6.16 µM
IC50 [9]: 1.03 to 6.16 µM
IC50 [10]: > 11.6 µM

O=C(O)CCc1cccc(Nc2ncnc(Nc3cc(-c4ccco4)[nH]n3)n2)c1 [Compound 887]
IC50 [1]: 1.02 to 6.13 µM
IC50 [2]: > 11.5 µM
IC50 [3]: 6.13 to 8.94 µM
IC50 [4]: < 1.02 µM
IC50 [5]: 1.02 to 6.13 µM
IC50 [6]: < 1.02 µM
IC50 [7]: < 1.02 µM
IC50 [8]: 1.02 to 6.13 µM
IC50 [9]: < 1.02 µM
IC50 [10]: 1.02 to 6.13 µM

CNS(=O)(=O)Cc1ccc(Nc2ncnc(Nc3cc(-c4ccco4)[nH]n3)n2)cc1 [Compound 888]
IC50 [1]: 5.63 to 8.21 µM
IC50 [2]: > 10.6 µM
IC50 [3]: < 0.938 µM
IC50 [4]: 0.938 to 5.63 µM
IC50 [5]: 0.938 to 5.63 µM
IC50 [6]: < 0.938 µM
IC50 [7]: < 0.938 µM
IC50 [8]: 0.938 to 5.63 µM
IC50 [9]: < 0.938 µM
IC50 [10]: 0.938 to 5.63 µM

c1coc(-c2cc(Nc3ncnc(Nc4nc[nH]n4)n3)n[nH]2)c1 [Compound 889]
IC50 [1]: > 14.5 µM
IC50 [2]: > 14.5 µM
IC50 [3]: 1.29 to 7.73 µM
IC50 [4]: 1.29 to 7.73 µM
IC50 [5]: 1.29 to 7.73 µM
IC50 [6]: 1.29 to 7.73 µM
IC50 [7]: 1.29 to 7.73 µM
IC50 [8]: > 14.5 µM
IC50 [9]: 1.29 to 7.73 µM
IC50 [10]: 1.29 to 7.73 µM

COc1cc(Nc2ncnc(-c3cccnc3NCC(C)c3ccccc3)n2)cc(OC)c1OC (centres unmarked) [Compound 890]
IC50 [1]: > 9.52 µM
IC50 [2]: > 9.52 µM
IC50 [3]: > 9.52 µM
IC50 [4]: > 9.52 µM
IC50 [5]: > 9.52 µM
IC50 [6]: 7.41 to 9.52 µM
IC50 [7]: > 9.52 µM
IC50 [8]: > 9.52 µM
IC50 [9]: > 9.52 µM
IC50 [10]: 0.846 to 5.08 µM

c1coc(-c2cc(Nc3ncnc(Nc4ccc(-c5csnn5)cc4)n3)n[nH]2)c1 [Compound 891]
IC50 [1]: 5.95 to 8.68 µM
IC50 [2]: 0.991 to 5.95 µM
IC50 [3]: 0.991 to 5.95 µM
IC50 [4]: 0.991 to 5.95 µM
IC50 [5]: < 0.991 µM
IC50 [6]: < 0.991 µM
IC50 [7]: < 0.991 µM
IC50 [8]: 0.991 to 5.95 µM
IC50 [9]: < 0.991 µM
IC50 [10]: < 0.991 µM

CCOc1cccc(Nc2ncnc(N3CCCc4cc(C)ccc43)n2)c1 [Compound 892]
IC50 [1]: 1.11 to 6.64 µM
IC50 [2]: > 12.4 µM
IC50 [3]: 9.68 to 12.4 µM
IC50 [4]: < 1.11 µM
IC50 [5]: 1.11 to 6.64 µM
IC50 [6]: 1.11 to 6.64 µM
IC50 [7]: 1.11 to 6.64 µM
IC50 [8]: > 12.4 µM
IC50 [9]: > 12.4 µM
IC50 [10]: < 1.11 µM

Cc1ccc2c(c1)CCCN2c1ncnc(Nc2ccc(F)c(F)c2)n1 [Compound 893]
IC50 [1]: > 12.7 µM
IC50 [2]: > 12.7 µM
IC50 [3]: > 12.7 µM
IC50 [4]: 1.13 to 6.79 µM
IC50 [5]: > 12.7 µM
IC50 [6]: > 12.7 µM
IC50 [7]: 1.13 to 6.79 µM
IC50 [8]: 1.13 to 6.79 µM
IC50 [9]: > 12.7 µM
IC50 [10]: 1.13 to 6.79 µM

COc1ccc(Nc2ncnc(Nc3ccc4c(c3)C(=O)OC4)n2)cc1OC [Compound 894]
IC50 [1]: > 11.9 µM
IC50 [2]: > 11.9 µM
IC50 [3]: 9.23 to 11.9 µM
IC50 [4]: 6.33 to 9.23 µM
IC50 [5]: > 11.9 µM
IC50 [6]: 1.05 to 6.33 µM
IC50 [7]: > 11.9 µM
IC50 [8]: > 11.9 µM
IC50 [9]: > 11.9 µM
IC50 [10]: < 1.05 µM

COc1ccc(Nc2ncnc(Nc3ccc4ncsc4c3)n2)cc1OC [Compound 895]
IC50 [1]: 1.05 to 6.31 µM
IC50 [2]: > 11.8 µM
IC50 [3]: 1.05 to 6.31 µM
IC50 [4]: 1.05 to 6.31 µM
IC50 [5]: 6.31 to 9.2 µM
IC50 [6]: 1.05 to 6.31 µM
IC50 [7]: > 11.8 µM
IC50 [8]: > 11.8 µM
IC50 [9]: < 1.05 µM
IC50 [10]: < 1.05 µM
